In patent US8044073B2, “Aminobenzimidazoles and benzimidazoles as inhibitors of respiratory syncytial virus replication” (Tibotec Pharmaceuticals, priority 2003, dated 2011):
Like-named read-outs stand apart in the source and are kept apart here.

Assays:
[1] = test system: Respiratory Syncytial Virus; experiment: In vitro screening for activity against RSV (tetrazolium-based colorimetric assay, protection against viral cytopathology); type: cell-based; conditions: for EC50: human respiratory syncytial virus, 168 h, RSV in HeLa cells, MTT, seven days after infection; for Activity: Table 6, numeric activity values, pEC50 (−log of EC50 in molar units)
Description: The percent protection against cytopathology caused by viruses (antiviral activity or EC50) achieved by tested compounds and their cytotoxicity (CC50) are both calculated from dose-response curves. The selectivity of the antiviral effect is represented by the selectivity index (SI), calculated by dividing the CC50 (cytotoxic dose for 50% of the cells) by the EC50 (antiviral activity for 50% of the cells). The tables in the above experimental part list the category to which each of the prepared compounds belong: Compounds belonging to activity category “A” have a pEC50 (−log of EC50 when expressed in molar units) equal to or more than 7. Compounds belonging to activity category “B” have a pEC50 value between 6 and 7.
Automated tetrazolium-based colorimetric assays were used for determination of EC50 and CC50 of test compounds. Flat-bottom, 96-well plastic microtiter trays were filled with 180 μl of Eagle's Basal Medium, supplemented with 5% FCS (0% for FLU) and 20 mM Hepes buffer. Subsequently, stock solutions (7.8× final test concentration) of compounds were added in 45 μl volumes to a series of triplicate wells so as to allow simultaneous evaluation of their effects on virus- and mock-infected cells. Five five-fold dilutions were made directly in the microtiter trays using a robot system. Untreated virus controls, and HeLa cell controls were included in each test. Approximately 100 TCID50 of Respiratory Syncytial Virus was added to two of the three rows in a volume of 50 μl. The same volume of medium was added to the third row to measure the cytotoxicity of the compounds at the same concentrations as those used to measure the antiviral activity. After two hours of incubation, a suspension (4×10^5 cells/ml) of HeLa cells was added to all wells in a volume of 50 μl. The cultures were incubated at 37° C. in a 5% CO2 atmosphere. Seven days after infection the cytotoxicity and the antiviral activity was examined spectrophotometrically. To each well of the microtiter tray, 25 μl of a solution of MTT (3-(4,5-dimethylthiazol-2-yl)-2,5-diphenyltetrazolium bromide) was added. The trays were further incubated at 37° C. for 2 hours, after which the medium was removed from each cup. Solubilization of the formazan crystals was achieved by adding 100 μl 2-propanol. Complete dissolution of the formazan crystals were obtained after the trays have been placed on a plate shaker for 10 min. Finally, the absorbances were read in an eight-channel computer-controlled photometer (Multiskan MCC, Flow Laboratories) at two wavelengths (540 and 690 nm). The absorbance measured at 690 nm was automatically subtracted from the absorbance at 540 nm, so as to eliminate the effects of non-specific absorption.
The percent protection against cytopathology caused by viruses (antiviral activity or EC50) achieved by tested compounds and their cytotoxicity (CC50) were both calculated from dose-response curves. The selectivity of the antiviral effect is represented by the selectivity index (SI), calculated by dividing the CC50 (cytotoxic dose for 50% of the cells) by the EC50 (antiviral activity for 50% of the cells).

[2] = Table 1, pEC50 = -log of EC50 in molar units, read-out: Activity (converted)
[3] = Table 3, pEC50 = -log of EC50 in molar units, read-out: Activity (converted)

SMILES | Activity [1] | further results
Cc1ccc(O)c(Cn2c(N)nc3ccc(CNc4cccc(OC(F)(F)F)c4)cc32)n1 [Compound 4, 2-{2-Amino-6-[(3-trifluoromethoxyphenylamino)-methyl]-benzoimidazol-1-ylmethyl}-6-methyl-pyridin-3-ol] | – | EC50 [1, 2]: 2.51 nM; melting point: 156 °C
CC(=O)O.Cc1ccc(O)c(Cn2c(N)nc3ccc(CNc4ccccc4C)cc32)n1 [Compound 8, 2-[2-Amino-6-(o-tolylamino-methyl)-benzoimidazol-1-ylmethyl]-6-methyl-pyridin-3-ol acetic acid salt] | – | EC50 [1, 2]: 3.16 nM; melting point: 120 °C
Cc1ccc(CCCO)c(NCc2ccc3nc(N)n(Cc4nc(C)ccc4O)c3c2)c1 [Compound 90, 2-(2-amino-6-{[2-(3-hydroxy-propyl)-5-methyl-phenylamino]-methyl}-benzimidazol-1-ylmethyl)-6-methylpyridin-3-ol] | – | EC50 [1, 2]: 0.0316 nM; melting point: 248 °C
Cc1ccc(CCCO)c(NCc2ccc3nc(N)n(Cc4nc(C)ccc4OCc4ccccc4)c3c2)c1 [Compound 128] | – | EC50 ([1]; table of compound 128 (scheme E), read-out: Activity category (converted)): 126 nM; melting point: 129 °C
Cc1cccc(N(CCO)Cc2ccc3nc(N)n(Cc4nc(C)ccc4O)c3c2)c1 [Compound 129, 2-(2-amino-6-{[(2-hydroxy-ethyl)-m-tolyl-amino]-methyl}-benzoimidazol-1-ylmethyl)-6-methyl-pyridin-3-ol] | – | EC50 [1, 3]: 0.501 nM; melting point: 210 °C
Cc1cccc(N(CCN)Cc2ccc3nc(N)n(Cc4nc(C)ccc4O)c3c2)c1.Cl [Compound 131, 2-(2-amino-6-{[(2-amino-ethyl)-m-tolyl-amino]-methyl}-benzoimidazol-1-ylmethyl)-6-methyl-pyridin-3-ol HCl salt] | – | EC50 [1, 3]: 3.98 nM; melting point: 200 °C
Cc1ccc(O)c(Cn2c(N)nc3ccc(CN(CCC(N)=O)c4cccc(Br)c4)cc32)n1 [Compound 137, 3-[[2-Amino-3-(3-hydroxy-6-methyl-pyridin-2-ylmethyl)-3H-benzoimidazol-5-ylmethyl]-(3-bromo-phenyl)-amino]-propionamide] | – | EC50 [1, 3]: 0.251 nM; melting point: 245 °C
Cc1ccc(O)c(Cn2c(N)nc3ccc(CN(CCCCO)c4cccc(Br)c4)cc32)n1 [Compound 139, 2-(2-Amino-6-{[(3-bromo-phenyl)-(4-hydroxy-butyl)-amino]-methyl}-benzoimidazol-1-ylmethyl)-6-methyl-pyridin-3-ol] | – | EC50 [1, 3]: 0.398 nM; melting point: 120 °C
Cc1ccc(O)c(Cn2c(N)nc3ccc(CN(CCN4CCOCC4)c4ccccc4CCO)cc32)n1 [Compound 160, 2-(2-Amino-6-{[[2-(2-hydroxy-ethyl)-phenyl]-(2-morpholin-4-yl-ethyl)-amino]-methyl}-benzoimidazol-1-ylmethyl)-6-methyl-pyridin-3-ol] | – | EC50 [1, 3]: 7.94 nM; melting point: 184 °C
Cc1cccc(C(=O)Nc2ccc3c(c2)ncn3Cc2nc(C)ccc2O)c1 [Compound 242] | 4.2 | –
Cc1ccc(O)c(Cn2cnc3cc(CNCCc4cccn4C)ccc32)n1 [Compound 243] | 4.2 | –
Cc1ccc(O)c(Cn2cnc3cc(NC(=O)Cc4ccccc4)ccc32)n1 [Compound 244] | 4.2 | –
Cc1ccc(O)c(Cn2cnc3cc(NC(=O)C4CCN(CCN)CC4)ccc32)n1 [Compound 245] | 4.2 | –
Cc1ccc(O)c(Cn2cnc3cc(CO)ccc32)n1 [Compound 246] | <4.0 | –
Cc1ccc(O)c(Cn2cnc3ccc(CO)cc32)n1 [Compound 247] | <4.0 | –
Cc1ccc(O)c(Cn2cnc3cc(C=Cc4ccccc4)ccc32)n1 [Compound 249] | <4.0 | –
Cc1ccc(O)c(Cn2cnc3cc(CCc4ccccc4)ccc32)n1 [Compound 250] | <4.0 | –
Cc1ccc(O)c(Cn2cnc3cc(C=CC#N)ccc32)n1 [Compound 252] | <4.0 | –
Cc1ccc(O)c(Cn2cnc3cc(CNCCc4ccccc4)ccc32)n1 [Compound 253] | <4.0 | –
Cc1ccc(O)c(Cn2cnc3cc(CNCCN(C)C)ccc32)n1 [Compound 255] | <4.0 | –
Cc1ccc(O)c(Cn2cnc3cc(CNCCCN4CCOCC4)ccc32)n1.Cl [Compound 258] | <4.0 | –
COCCCNCc1ccc2c(c1)ncn2Cc1nc(C)ccc1O [Compound 260] | <4.0 | –
Cc1ccc(O)c(Cn2cnc3cc(CNC4CCNCC4)ccc32)n1.Cl [Compound 262] | <4.0 | –
Cc1cccc(NCc2ccc3c(c2)ncn3Cc2nc(C)ccc2O)c1 [Compound 265] | <4.0 | –
Cc1ccc(O)c(Cn2cnc3cc(NC(=O)c4ccccc4)ccc32)n1 [Compound 266] | <4.0 | –
Cc1ccc(O)c(Cn2cnc3cc(NC(=O)C4CCNCC4)ccc32)n1 [Compound 267] | <4.0 | –

SMILES | Activity [1] | further results
COCCNCc1ccc2c(c1)ncn2Cc1nc(C)ccc1O [Compound 269] | <4.0 | –
Cc1ccc(O)c(Cn2cnc3cc(CNCc4ccncc4)ccc32)n1 [Compound 270] | <4.0 | –
Cc1ccc(O)c(Cn2cnc3cc(CNCc4ccco4)ccc32)n1 [Compound 271] | <4.0 | –
Cc1ccc(O)c(Cn2cnc3cc(CNCCCc4ccccc4)ccc32)n1 [Compound 272] | <4.0 | –
Cc1ccc(O)c(Cn2cnc3cc(C(O)c4ccccc4)ccc32)n1.O=C(O)C(=O)O (stereo not drawn) [Compound 274] | <4.0 | –
Cc1ccc(O)c(Cn2cnc3ccc(NC(=O)Cc4ccccn4)cc32)n1 [Compound 276] | <4.0 | –
Cc1ccc(O)c(Cn2cnc3ccc(NC(=O)CCc4ccccc4)cc32)n1 [Compound 277] | <4.0 | –
Cc1ccc(O)c(Cn2cnc3ccc(NC(=O)c4cccnc4)cc32)n1 [Compound 278] | <4.0 | –
Cc1ccc(O)c(Cn2cnc3cc(NC(=O)c4cccnc4)ccc32)n1 [Compound 279] | <4.0 | –
Cc1ccc(O)c(Cn2cnc3cc(NC(=O)CCc4ccccc4)ccc32)n1 [Compound 280] | <4.0 | –
Cc1ccc(O)c(Cn2cnc3cc(NC(=O)Cc4ccccn4)ccc32)n1 [Compound 281] | <4.0 | –
CC(=O)c1cccc(NCc2ccc3ncn(Cc4nc(C)ccc4O)c3c2)c1 [Compound 282] | <4.0 | –
Cc1ccc(O)c(Cn2cnc3ccc(CNc4cccc(C)c4C)cc32)n1 [Compound 284] | <4.0 | –
Cc1ccc(O)c(Cn2cnc3ccc(CNc4ccccc4)cc32)n1 [Compound 285] | <4.0 | –
CC(=O)c1cccc(NCc2ccc3c(c2)ncn3Cc2nc(C)ccc2O)c1 [Compound 286] | <4.0 | –
Cc1ccc(O)c(Cn2cnc3cc(CNc4cccc(Br)c4)ccc32)n1 [Compound 287] | <4.0 | –
Cc1ccc(O)c(Cn2cnc3cc(CNc4cccc(Cl)c4)ccc32)n1 [Compound 288] | <4.0 | –
Cc1cc(C)cc(NCc2ccc3c(c2)ncn3Cc2nc(C)ccc2O)c1 [Compound 289] | <4.0 | –
Cc1ccc(O)c(Cn2cnc3cc(CNc4cc(Cl)cc(Cl)c4)ccc32)n1 [Compound 290] | <4.0 | –
Cc1ccc(O)c(Cn2cnc3cc(CNc4cccc5cccnc45)ccc32)n1 [Compound 291] | <4.0 | –
Cc1ccc(O)c(Cn2cnc3cc(CNc4cccc(C#N)c4)ccc32)n1 [Compound 292] | <4.0 | –
Cc1ccc(O)c(Cn2cnc3cc(CNc4cccc(F)c4)ccc32)n1 [Compound 293] | <4.0 | –
CCc1cccc(NCc2ccc3c(c2)ncn3Cc2nc(C)ccc2O)c1 [Compound 294] | <4.0 | –
Cc1ccc(O)c(Cn2cnc3cc(CNc4cccc(C)c4C)ccc32)n1 [Compound 295] | <4.0 | –
Cc1ccc(O)c(Cn2cnc3cc(CNc4ccccc4)ccc32)n1 [Compound 296] | <4.0 | –
